Our source for the IC50, inhibition and fold change (FC) values is ChEMBL document CHEMBL4152374, “A new phenolic series of indenopyridinone as topoisomerase inhibitors: Design, synthesis, and structure-activity relationships” (Bioorg Med Chem, 2018).

One assay has as its system HCT-15. Briefly: Antiproliferative activity against human HCT15 cells after 72 hrs by EZ-CYTOX reagent based assay. In kind it is functional, cell-based. The note with it: HCT-15, 72 h.
The target of assay [1] is DNA topoisomerase 2-alpha (Homo sapiens) (UniProt P11388). Briefly: Inhibition of human topoisomerase 2-alpha using supercoiled pBR322 plasmid DNA as substrate at 100 uM after 30 mins by agarose gel electrophoresis method relative to control.
Sequence of DNA topoisomerase 2-alpha (Homo sapiens) (P11388 whole entry): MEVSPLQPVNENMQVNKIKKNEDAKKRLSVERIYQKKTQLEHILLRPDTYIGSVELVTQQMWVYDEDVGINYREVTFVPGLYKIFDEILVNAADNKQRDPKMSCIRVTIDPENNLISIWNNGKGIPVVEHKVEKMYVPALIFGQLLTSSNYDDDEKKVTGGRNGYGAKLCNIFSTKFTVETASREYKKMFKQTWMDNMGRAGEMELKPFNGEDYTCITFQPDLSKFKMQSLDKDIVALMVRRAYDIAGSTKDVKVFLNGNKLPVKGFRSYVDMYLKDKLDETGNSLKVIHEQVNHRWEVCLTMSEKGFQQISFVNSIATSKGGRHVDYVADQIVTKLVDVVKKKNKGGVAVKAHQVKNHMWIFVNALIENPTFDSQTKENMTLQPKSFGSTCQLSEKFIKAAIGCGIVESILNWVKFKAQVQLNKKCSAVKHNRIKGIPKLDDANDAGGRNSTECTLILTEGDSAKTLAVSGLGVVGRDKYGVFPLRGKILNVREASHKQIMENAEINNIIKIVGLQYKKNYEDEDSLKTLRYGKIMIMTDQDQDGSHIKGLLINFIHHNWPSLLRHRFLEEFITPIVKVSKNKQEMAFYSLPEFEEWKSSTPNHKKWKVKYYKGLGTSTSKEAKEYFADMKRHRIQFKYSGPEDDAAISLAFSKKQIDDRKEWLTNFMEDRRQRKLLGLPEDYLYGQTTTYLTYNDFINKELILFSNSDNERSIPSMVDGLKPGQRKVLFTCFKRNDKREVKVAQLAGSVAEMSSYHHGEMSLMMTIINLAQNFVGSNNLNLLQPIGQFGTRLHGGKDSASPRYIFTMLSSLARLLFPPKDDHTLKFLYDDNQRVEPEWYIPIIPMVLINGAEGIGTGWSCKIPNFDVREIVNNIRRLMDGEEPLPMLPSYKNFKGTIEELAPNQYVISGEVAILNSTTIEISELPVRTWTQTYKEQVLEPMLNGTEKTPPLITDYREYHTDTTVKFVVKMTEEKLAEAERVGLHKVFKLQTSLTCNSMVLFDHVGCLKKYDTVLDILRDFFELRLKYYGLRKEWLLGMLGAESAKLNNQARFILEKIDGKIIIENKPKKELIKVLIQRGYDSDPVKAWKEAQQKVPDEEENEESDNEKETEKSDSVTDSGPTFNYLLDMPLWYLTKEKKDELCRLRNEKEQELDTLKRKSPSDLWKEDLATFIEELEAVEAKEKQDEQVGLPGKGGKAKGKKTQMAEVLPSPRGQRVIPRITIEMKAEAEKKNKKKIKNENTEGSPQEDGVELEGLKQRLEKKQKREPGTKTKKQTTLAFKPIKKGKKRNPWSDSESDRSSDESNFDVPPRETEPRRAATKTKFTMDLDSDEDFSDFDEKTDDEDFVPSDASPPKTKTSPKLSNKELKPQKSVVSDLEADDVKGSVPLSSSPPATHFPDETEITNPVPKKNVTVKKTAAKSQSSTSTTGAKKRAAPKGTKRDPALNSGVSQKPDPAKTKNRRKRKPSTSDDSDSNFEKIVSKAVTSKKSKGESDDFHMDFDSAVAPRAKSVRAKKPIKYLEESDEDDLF
The subject of the next assay is HeLa. The assay can be described thus: Antiproliferative activity against human HeLa cells after 72 hrs by EZ-CYTOX reagent based assay. The assay is classed as functional, cell-based.
The target of assay [2] is DNA topoisomerase 2-alpha (Homo sapiens) (UniProt P11388). Briefly: Inhibition of human topoisomerase 2-alpha using supercoiled pBR322 plasmid DNA as substrate at 100 uM after 30 mins by agarose gel electrophoresis method relative to etoposide.
For assay [3] the target is unchanged. The assay can be described thus: Inhibition of human topoisomerase 2-alpha using supercoiled pBR322 plasmid DNA as substrate at 20 uM after 30 mins by agarose gel electrophoresis method relative to control.
A further assay has as its system T47D. The assay can be described thus: Antiproliferative activity against human T47D cells after 72 hrs by EZ-CYTOX reagent based assay. The assay is classed as functional, cell-based.
A further assay deals with Calf thymus DNA. The assay can be described thus: Inhibition of EtBr binding to calf thymus DNA up to 40 uM by fluorescence spectroscopy. In kind it is nucleic-acid assay. Particulars: Bos taurus.
In assay [4] the target is T1, DNA topoisomerase 1 (Homo sapiens) (UniProt P11387).
T1 sequence (whole entry): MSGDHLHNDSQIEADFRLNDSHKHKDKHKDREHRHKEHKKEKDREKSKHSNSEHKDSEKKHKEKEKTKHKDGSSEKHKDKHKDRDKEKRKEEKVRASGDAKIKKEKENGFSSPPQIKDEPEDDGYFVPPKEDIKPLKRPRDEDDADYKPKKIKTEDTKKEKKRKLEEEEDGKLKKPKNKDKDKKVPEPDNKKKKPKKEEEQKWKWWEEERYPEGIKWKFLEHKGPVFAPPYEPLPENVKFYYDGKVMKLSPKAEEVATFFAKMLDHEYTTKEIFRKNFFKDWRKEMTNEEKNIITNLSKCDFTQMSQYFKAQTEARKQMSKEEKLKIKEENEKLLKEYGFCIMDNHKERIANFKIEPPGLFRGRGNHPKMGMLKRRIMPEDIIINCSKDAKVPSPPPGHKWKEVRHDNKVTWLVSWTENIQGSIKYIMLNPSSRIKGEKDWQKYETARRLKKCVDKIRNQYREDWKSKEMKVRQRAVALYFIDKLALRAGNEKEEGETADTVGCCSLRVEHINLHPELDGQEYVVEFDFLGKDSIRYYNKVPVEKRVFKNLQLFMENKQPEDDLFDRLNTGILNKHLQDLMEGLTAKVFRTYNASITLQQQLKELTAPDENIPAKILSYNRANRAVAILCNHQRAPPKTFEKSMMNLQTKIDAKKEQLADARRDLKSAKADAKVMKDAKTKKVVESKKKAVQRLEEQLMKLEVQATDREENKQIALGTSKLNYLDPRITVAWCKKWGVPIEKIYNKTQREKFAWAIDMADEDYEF
Briefly: Inhibition of human topoisomerase 1 using supercoiled pBR322 plasmid DNA as substrate at 100 uM after 30 mins by agarose gel electrophoresis method relative to control.

The target in assay [5] is T1, DNA topoisomerase 1 (Homo sapiens). Briefly: Inhibition of human topoisomerase 1 using supercoiled pBR322 plasmid DNA as substrate at 20 uM after 30 mins by agarose gel electrophoresis method relative to control.
The target in assay [6] is DNA topoisomerase 2-alpha (Homo sapiens) (UniProt P11388). Briefly: Inhibition of human topoisomerase 2-alpha using supercoiled pBR322 plasmid DNA as substrate at 20 uM after 30 mins by agarose gel electrophoresis method relative to etoposide.

For the molecule `O=C1c2ccccc2-c2nc(-c3cccc(O)c3)cc(-c3ccc(O)cc3)c21`, the figures for the IC50 with HCT-15, in the assay with HeLa and in the assay with T47D were 9.51 µM, greater than 50 µM and 1540 nM, respectively. In addition, the inhibition is 100% in assay [1]; 93.7% in [3]; “Dose-dependent effect” with Calf thymus DNA; 42.6% in assay [4]; 35.4% in assay [5]. Besides, the values for the fold change (FC) in assay [2] and in assay [6] were 1.33 to 1.42 and 1.88 to 1.89, respectively.

The IC50 is the concentration at which inhibition is half-maximal. A higher IC50 goes with a need for much substance. As a reminder, the inhibition is the relative decrease from the control value, in per cent.
